Experimental findings from US12410171B2, “Tropomyosin receptor kinase (TRK) degradation compounds and methods of use” (Cullgen (Shanghai), Inc., priority 2020, dated 2025) are described below.

Read-outs that look alike come from different tables or passages of the source.

The assay deals with T1, TPM3-TRKA fusion protein (Homo sapiens, UniProt P04629).
T1 construct: The resulted chimeric proteins always retain the kinase domain of TRK proteins; TPM3 (fusion partner, N-terminal part of tropomyosin alpha-3, P06753); endogenous in cells; host or cells: KM12 colon cancer cells; the other entry of the earlier key: TPM3 (P06753, Tropomyosin alpha-3 chain)
T1 sequence (P04629 with tags, fused parts or gaps): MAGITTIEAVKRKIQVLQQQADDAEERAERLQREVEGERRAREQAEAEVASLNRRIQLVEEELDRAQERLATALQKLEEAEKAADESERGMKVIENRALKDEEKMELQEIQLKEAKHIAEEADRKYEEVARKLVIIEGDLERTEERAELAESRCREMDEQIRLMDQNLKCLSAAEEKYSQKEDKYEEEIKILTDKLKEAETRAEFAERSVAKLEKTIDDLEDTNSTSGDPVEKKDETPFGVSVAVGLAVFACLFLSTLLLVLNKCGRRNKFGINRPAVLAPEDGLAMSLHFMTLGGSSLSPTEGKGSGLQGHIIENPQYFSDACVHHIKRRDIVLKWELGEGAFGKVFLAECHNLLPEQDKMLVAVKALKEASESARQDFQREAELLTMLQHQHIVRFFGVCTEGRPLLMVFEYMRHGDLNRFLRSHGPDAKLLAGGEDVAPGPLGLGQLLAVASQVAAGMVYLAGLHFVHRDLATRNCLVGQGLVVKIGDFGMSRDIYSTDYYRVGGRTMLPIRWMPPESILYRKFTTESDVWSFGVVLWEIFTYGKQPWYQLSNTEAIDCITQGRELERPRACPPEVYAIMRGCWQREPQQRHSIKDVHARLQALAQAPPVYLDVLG
Nature of the assay: TPM3-TRKA fusion protein levels in KM12 cells (Western blot). In kind it is cell-based. The following applies: read-out: Degradation (at 10 nM). In short, it runs like this: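 KM12 colon cancer cells were treated with DMSO or compounds at 0.1–100 nM, 0.4–30 nM or other stated concentrations for 4, 8–16 or 16 h. RIPA lysates were BCA-normalized and resolved by SDS-PAGE. TPM3-TRKA was detected by chemiluminescent Western blot, with bands quantified by densitometry.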
For orientation: Immunoblotting shows a protein as a band on a membrane.

The mark [1] stands for this setting: 16 h, TPM3-TRKA degradation in KM12 cells at 10 nM compound, category of percentage degradation.

For `O=C1CCC(N2Cc3ccc(NCC(=O)N4CCN(c5cccc(-c6cnc7ccc(N8CCC[C@@H]8c8cccc(F)c8)nn67)n5)CC4)cc3C2=O)C(=O)N1` (stereo partly drawn) [TR-189, 3-(6-((2-(4-(6-(6-((R)-2-(3-fluorophenyl)pyrrolidin-1-yl)imidazo[1,2-b]pyridazin-3-yl)pyridin-2-yl)piperazin-1-yl)-2-oxoethyl)amino)-1-oxoisoindolin-2-yl)piperidine-2,6-dione], under setting [1], the percent degradation of TPM3-TRKA protein at 0.01 µM is more than 80%.
Same read-out and setting: the result for `O=C1CCC(N2Cc3cc(NCCN4CCN(c5cccc(-c6cnc7ccc(N8CCC[C@@H]8c8cccc(F)c8)nn67)n5)CC4)ccc3C2=O)C(=O)N1` (stereo partly drawn) [TR-191, 3-(5-((2-(4-(6-(6-((R)-2-(3-fluorophenyl)pyrrolidin-1-yl)imidazo[1,2-b]pyridazin-3-yl)pyridin-2-yl)piperazin-1-yl)ethyl)amino)-1-oxoisoindolin-2-yl)piperidine-2,6-dione] reads more than 80%; that for `O=C1CCC(N2Cc3ccc(NCCN4CCN(c5cccc(-c6cnc7ccc(N8CCC[C@@H]8c8cccc(F)c8)nn67)n5)CC4)cc3C2=O)C(=O)N1` (stereo partly drawn) [TR-196, 3-(6-((2-(4-(6-(6-((R)-2-(3-fluorophenyl)pyrrolidin-1-yl)imidazo[1,2-b]pyridazin-3-yl)pyridin-2-yl)piperazin-1-yl)ethyl)amino)-1-oxoisoindolin-2-yl)piperidine-2,6-dione], 50 to 80%; that for `O=C1CCC(N2Cc3ccc(C#CC(=O)N4CCN(c5cccc(-c6cnc7ccc(N8CCC[C@@H]8c8cccc(F)c8)nn67)n5)CC4)cc3C2=O)C(=O)N1` (stereo partly drawn) [TR-202, 3-(6-(3-(4-(6-(6-((R)-2-(3-Fluorophenyl)pyrrolidin-1-yl)imidazo[1,2-b]pyridazin-3-yl)pyridin-2-yl)piperazin-1-yl)-3-oxoprop-1-yn-1-yl)-1-oxoisoindolin-2-yl)piperidine-2,6-dione], 50 to 80%.
Turning to `O=C1CCC(N2Cc3cc(C#CC(=O)N4CCN(c5cccc(-c6cnc7ccc(N8CCC[C@@H]8c8cccc(F)c8)nn67)n5)CC4)ccc3C2=O)C(=O)N1` (stereo partly drawn) [TR-203, 3-(5-(3-(4-(6-(6-((R)-2-(3-fluorophenyl)pyrrolidin-1-yl)imidazo[1,2-b]pyridazin-3-yl)pyridin-2-yl)piperazin-1-yl)-3-oxoprop-1-yn-1-yl)-1-oxoisoindolin-2-yl)piperidine-2,6-dione], the percent degradation of TPM3-TRKA protein at 0.01 µM under setting [1] was 50 to 80%.
For `O=C1CCC(N2C(=O)c3ccc(CCN4CCN(c5cccc(-c6cnc7ccc(N8CCC[C@@H]8c8cccc(F)c8)nn67)n5)CC4)cc3C2=O)C(=O)N1` (stereo partly drawn) [TR-204, 2-(2,6-dioxopiperidin-3-yl)-5-(2-(4-(6-(6-((R)-2-(3-fluorophenyl)pyrrolidin-1-yl)imidazo[1,2-6]pyridazin-3-yl)pyridin-2-yl)piperazin-1-yl)ethyl)isoindoline-1,3-dione], the percent degradation of TPM3-TRKA protein at 0.01 µM under setting [1] is more than 80%.
Turning to `O=C1CCC(N2Cc3cc(C#CC4CCN(c5cccc(-c6cnc7ccc(N8CCC[C@@H]8c8cccc(F)c8)nn67)n5)CC4)ccc3C2=O)C(=O)N1` (stereo partly drawn) [TR-208, 3-(5-((1-(6-(6-((R)-2-(3-fluorophenyl)pyrrolidin-1-yl)imidazo[1,2-b]pyridazin-3-yl)pyridin-2-yl)piperidin-4-yl)ethynyl)-1-oxoisoindolin-2-yl)piperidine-2,6-dione], the percent degradation of TPM3-TRKA protein at 0.01 µM under setting [1] was 50 to 80%.
`O=C1CCC(N2Cc3cc(NCC4CN(c5cccc(-c6cnc7ccc(N8CCC[C@@H]8c8cccc(F)c8)nn67)n5)C4)ccc3C2=O)C(=O)N1` (stereo partly drawn) [TR-210, 3-(5-(((1-(6-(6-((R)-2-(3-Fluorophenyl)pyrrolidin-1-yl)imidazo[1,2-b]pyridazin-3-yl)pyridin-2-yl)azetidin-3-yl)methyl)amino)-1-oxoisoindolin-2-yl)piperidine-2,6-dione]: the percent degradation of TPM3-TRKA protein at 0.01 µM under setting [1] was in the range of 50 to 80%.
`COc1ccc(CN(CCN2CCN(c3cccc(-c4cnc5ccc(N6CCC[C@@H]6c6cccc(F)c6)nn45)n3)CC2)c2ccc3c(c2)C(=O)N(C2CCC(=O)NC2=O)C3=O)cc1` (stereo partly drawn) [TR-214, 2-(2,6-Dioxo-3-piperidyl)-5-(2-(4-(6-(6-((2R)-2-(3-fluorophenyl)pyrrolidin-1-yl)imidazo[1,2-b]pyridazin-3-yl)-2-pyridyl)piperazin-1-yl)ethyl-((4-methoxyphenyl)methyl)amino) isoindoline-1,3-dione]: the percent degradation of TPM3-TRKA protein at 0.01 µM under setting [1] is less than 50%.
For the compound `Cn1c(=O)n(C2CCC(=O)NC2=O)c2cccc(NCCN3CCN(c4cccc(-c5cnc6ccc(N7CCC[C@@H]7c7cccc(F)c7)nn56)n4)CC3)c21` (stereo partly drawn) [TR-216, 3-[4-[2-[4-[6-[6-[(2R)-2-(3-Fluorophenyl)pyrrolidin-1-yl]imidazo[1,2-b]pyridazin-3-yl]-2-pyridyl]piperazin-1-yl]ethylamino]-3-methyl-2-oxo-benzimidazol-1-yl]piperidine-2,6-dione], under setting [1], the percent degradation of TPM3-TRKA protein at 0.01 µM was more than 80%.
Turning to `Cn1c(=O)n(C2CCC(=O)NC2=O)c2cccc(NCCCN3CCN(c4cccc(-c5cnc6ccc(N7CCC[C@@H]7c7cccc(F)c7)nn56)n4)CC3)c21` (stereo partly drawn) [TR-217, 3-[4-[3-[4-[6-[6-[(2R)-2-(3-Fluorophenyl)pyrrolidin-1-yl]imidazo[1,2-b]pyridazin-3-yl]-2-pyridyl]piperazin-1-yl]propylamino]-3-methyl-2-oxo-benzimidazol-1-yl]piperidine-2,6-dione], under setting [1], the percent degradation of TPM3-TRKA protein at 0.01 µM is more than 80%.
As for `O=C1CCC(N2Cc3cc(NCC4CCN(c5cccc(-c6cnc7ccc(N8CCC[C@@H]8c8cccc(F)c8)nn67)n5)CC4)ccc3C2=O)C(=O)N1` (stereo partly drawn) [TR-218, 3-(5-(((1-(6-(6-((R)-2-(3-fluorophenyl)pyrrolidin-1-yl)imidazo[1,2-b]pyridazin-3-yl)pyridin-2-yl)piperidin-4-yl)methyl)amino)-1-oxoisoindolin-2-yl)piperidine-2,6-dione], the percent degradation of TPM3-TRKA protein at 0.01 µM under setting [1] was 50 to 80%.
For `O=C1CCC(N2Cc3cc(C#CC4CN(c5cccc(-c6cnc7ccc(N8CCC[C@@H]8c8cccc(F)c8)nn67)n5)C4)ccc3C2=O)C(=O)N1` (stereo partly drawn) [TR-219, 3-(5-((1-(6-(6-((R)-2-(3-Fluorophenyl)pyrrolidin-1-yl)imidazo[1,2-b]pyridazin-3-yl)pyridin-2-yl)azetidin-3-yl)ethynyl)-1-oxoisoindolin-2-yl)piperidine-2,6-dione], the percent degradation of TPM3-TRKA protein at 0.01 µM under setting [1] was 50 to 80%.
Take `Cn1c(=O)n(C2CCC(=O)NC2=O)c2ccc(NCCN3CCN(c4cccc(-c5cnc6ccc(N7CCC[C@@H]7c7cccc(F)c7)nn56)n4)CC3)cc21` (stereo partly drawn) [TR-220, 3-(5-((2-(4-(6-(6-((R)-2-(3-Fluorophenyl)pyrrolidin-1-yl)imidazo[1,2-b]pyridazin-3-yl)pyridin-2-yl)piperazin-1-yl)ethyl)amino)-3-methyl-2-oxo-2,3-dihydro-1H-benzo[d]imidazol-1-yl)piperidine-2,6-dione]: the percent degradation of TPM3-TRKA protein at 0.01 µM under setting [1] is more than 80%.
Take `O=C1CCC(N2C[C@H](c3cccc(C#CCN4CCN(c5cccc(-c6cnc7ccc(N8CCC[C@@H]8c8cccc(F)c8)nn67)n5)CC4)c3)OC2=O)C(=O)N1` (stereo partly drawn) [TR-223, 3-((S)-5-(3-(3-(4-(6-(6-((R)-2-(3-fluorophenyl)pyrrolidin-1-yl)imidazo[1,2-b]pyridazin-3-yl)pyridin-2-yl)piperazin-1-yl)prop-1-yn-1-yl)phenyl)-2-oxooxazolidin-3-yl)piperidine-2,6-dione]: under setting [1], the percent degradation of TPM3-TRKA protein at 0.01 µM was 50 to 80%.
Take `O=C1CCC(N2C(=O)c3ccc(N4CCC(CN5CCN(c6cccc(-c7cnc8ccc(N9CCC[C@@H]9c9cccc(F)c9)nn78)n6)CC5)CC4)cc3C2=O)C(=O)N1` (stereo partly drawn) [TR-226, 2-(2,6-dioxopiperidin-3-yl)-5-(4-((4-(6-(6-((R)-2-(3-fluorophenyl)pyrrolidin-1-yl)imidazo[1,2-b]pyridazin-3-yl)pyridin-2-yl)piperazin-1-yl)methyl)piperidin-1-yl)isoindoline-1,3-dione]: the percent degradation of TPM3-TRKA protein at 0.01 µM under setting [1] is more than 80%.
On to `O=C1CCC(N2C[C@H](c3ccc(CN4CCN(c5cccc(-c6cnc7ccc(N8CCC[C@@H]8c8cccc(F)c8)nn67)n5)CC4)cc3)OC2=O)C(=O)N1` (stereo partly drawn) [TR-229, 3-((S)-5-(4-((4-(6-(6-((R)-2-(3-fluorophenyl)pyrrolidin-1-yl)imidazo[1,2-b]pyridazin-3-yl)pyridin-2-yl)piperazin-1-yl)methyl)phenyl)-2-oxooxazolidin-3-yl)piperidine-2,6-dione], for which the percent degradation of TPM3-TRKA protein at 0.01 µM under setting [1] lay within 50 to 80%.
Still for that read-out and setting: the result for `O=C1CCC(N2C(=O)c3ccc(NCCN4CCN(c5ccc(C(=O)Nc6n[nH]c7ccc(Cc8cc(F)cc(F)c8)cc67)c(NC6CCOCC6)c5)CC4)cc3C2=O)C(=O)N1` (centres unmarked) [TR-232, N-(5-(3,5-difluorobenzyl)-1H-indazol-3-yl)-4-(4-(2-((2-(2,6-dioxopiperidin-3-yl)-1,3-dioxoisoindolin-5-yl)amino)ethyl)piperazin-1-yl)-2-((tetrahydro-2H-pyran-4-yl)amino)benzamide] reads more than 80%; that for `O=C1CCC(N2C[C@H](c3cccc(CN4CCN(c5cccc(-c6cnc7ccc(N8CCC[C@@H]8c8cccc(F)c8)nn67)n5)CC4)c3)OC2=O)C(=O)N1` (stereo partly drawn) [TR-235, 3—((S)-5-(3-((4-(6-(6-((R)-2-(3-Fluorophenyl)pyrrolidin-1-yl)imidazo[1,2-b]pyridazin-3-yl)pyridin-2-yl)piperazin-1-yl)methyl)phenyl)-2-oxooxazolidin-3-yl)piperidine-2,6-dione], 50 to 80%.
As to `Cn1c(=O)n(C2CCC(=O)NC2=O)c2cccc(OCCCN3CCN(c4cccc(-c5cnc6ccc(N7CCC[C@@H]7c7cccc(F)c7)nn56)n4)CC3)c21` (some centres unmarked) [TR-245], the percent degradation of TPM3-TRKA protein at 0.01 µM (KM12, 16 h) is less than 50%.
